US20260248787A9, “MEDICAMENT FOR TREATING CANCER COMPRISING OPTICALLY ACTIVE AZABICYCLO RING DERIVATIVE” (Sumitomo Pharma Co., Ltd., priority 2023, published 2026)

Tested on: acute leukemia with MLLr or NPM1m
Test: Phase 1/2 clinical study, clinical activity (responses by ELN 2017)
Assay type: in vivo, human
Description: In the present test, signs of clinical activity have been observed, including decreases and normalization of bone marrow blasts, elimination of blasts in peripheral blood, and responses according to European LeukemiaNet 2017 Response Criteria. A patient with MLLr assigned to 120 mg BID in Arm A achieved MLFS (morphologic leukemia-free state), while a patient with MLLr assigned to 60 mg BID with azoles in Arm B achieved CRh (complete remission with partial hematological recovery) and CRi (complete remission with incomplete hematologic recovery). Substantial changes in several biomarkers have also been observed, including decreases in HOXA9, PBX3, and MEIS1, and increases in CD11b. These changes have been particularly notable in patients with MLLr or NPM1m.
(1) Of 43 patients enrolled, 17 patients had MLLr and 9 patients had NPM1m, with 19 evaluable at the time of data extraction and 5 responders per ELN 2017 (FIG. 7A). At 200 mg BID in Arm B, 4 evaluable patients had MLLr or NPM1m (n=1 and 3, respectively) and 1 patient achieved CRh/CRi, 1 patient achieved CRi, and 1 patient achieved MLFS. Two additional patients with MLLr also achieved response per ELN2017 at lower dose levels (CRh/CRi and MLFS).

[1] = 200 mg BID Arm B, 4 evaluable patients with MLLr or NPM1m

Structure (SMILES): C=C1C[C@@H]2CC[C@H]1[C@@H](C(=O)N1CCC3(CC1)CN(c1ncncc1Oc1ccc(F)cc1C(=O)N(C(C)C)C(C)C)C3)N2 [the present compound, 5-fluoro-2-[(4-{7-[(1S,3S,4R)-5-methylidene-2-azabicyclo[2.2.2]octane-3-carbonyl]-2,7-diazaspiro[3.5]nonan-2-yl}pyrimidin-5-yl)oxy]-N,N-di(propan-2-yl)benzamide]
- patients who achieved CRh/CRi [1]: 1 patient
- patients who achieved CRi [1]: 1 patient
- patients who achieved MLFS [1]: 1 patient
- response achieved (ELN 2017) (a patient with MLLr, 60 mg BID with azoles Arm B): CRh and CRi
